Reference: ChEMBL document CHEMBL1154439, “Activity of a hydroxybibenzyl bryophyte constituent against Leishmania spp. and Trypanosoma cruzi: in silico, in vitro and in vivo activity studies” (Eur J Med Chem, 2008)
Activity calls are given as the source filed them. No cut-off for these calls is given here.

How the values were obtained:
Leishmania amazonensis [1] = assay: Antileishmanial activity against Leishmania amazonensis IFLA/BR/67/PH8 promastigotes assessed as lysis of promastigotes at 100 ug/ml after 72 hrs; format: functional
Leishmania braziliensis [2] = assay: Antileishmanial activity against Leishmania braziliensis MHOM/BR/75/M2903 promastigotes assessed as lysis of promastigotes at 100 ug/ml after 72 hrs; format: functional
Trypanosoma cruzi [3] = assay: Antitrypanosomal activity against Trypanosoma cruzi CL-B5 amastigotes infected in mouse NCTC-929 fibroblast after 7 days by colorimetric method; format: functional, organism-based; conditions: NCTC-929, 168 h
Trypanosoma cruzi [4] = assay: Trypanocidal activity against Trypanosoma cruzi CL-B5 clone epimastigotes expressing lacZ gene after 72 hrs at 28 degC; format: functional, organism-based
[5] = Cytotoxicity against mouse NCTC-929 fibroblast at 21.7 uM after 24 hrs by resazurin test; format: cell-based; conditions: nctc-929, 24 h
Leishmania amazonensis [6] = assay: Leishmanicidal activity against Leishmania amazonensis amastigotes infected in BALB/c mouse assessed as suppression of lesion weight at 10 mg/kg/day, po administered 4 weeks after infection for 15 days measured after 1 week relative to control; format: functional
Leishmania amazonensis [7] = assay: Leishmanicidal activity against Leishmania amazonensis amastigotes infected in BALB/c mouse assessed as suppression of parasite load in lesions at 10 mg/kg/day, sc administered 4 weeks after infection for 15 days measured after 1 week relative to control; format: functional; conditions: route subcutaneous
Leishmania donovani [8] = assay: Leishmanicidal activity against Leishmania donovani MHOM/BR/74/PP75 promastigotes at >13.03 uM after 72 hrs; format: functional, organism-based
[9] = Cytotoxicity against mouse NCTC-929 fibroblast at 2.1 uM after 24 hrs by resazurin test; conditions: nctc-929, 24 h
Leishmania braziliensis [10] = assay: Leishmanicidal activity against Leishmania braziliensis MHOM/BR/75/M2903 promastigotes at >13.03 uM after 72 hrs; format: functional, organism-based
Leishmania amazonensis [11] = assay: Leishmanicidal activity against Leishmania amazonensis IFLA/BR/67/PH8 promastigotes after 72 hrs; format: functional, organism-based; conditions: IFLA/BR/67/PH8, 72 h
[12] = Cytotoxicity against BALB/c mouse peritoneal macrophages at 2.1 uM after 48 hrs by trypan blue exclusion method; format: cell-based; conditions: macrophage
[13] = Cytotoxicity against BALB/c mouse peritoneal macrophages at 4.3 uM after 48 hrs by trypan blue exclusion method; format: cell-based; conditions: macrophage
J774 [14] = assay: Cytotoxicity against mouse J774 macrophages at 4.3 uM after 24 hrs by resazurin test; format: cell-based; conditions: j774, 24 h
[15] = Cytotoxicity against mouse NCTC-929 fibroblast at 4.3 uM after 24 hrs by resazurin test; format: cell-based; conditions: nctc-929, 24 h
J774 [16] = assay: Cytotoxicity against mouse J774 macrophages at 21.7 uM after 24 hrs by resazurin test; format: cell-based; conditions: j774, 24 h
Leishmania amazonensis [17] = assay: Leishmanicidal activity against Leishmania amazonensis amastigotes infected in BALB/c mouse assessed as suppression of parasite load in lesions at 10 mg/kg/day, po administered 4 weeks after infection for 15 days measured after 1 week relative to control; format: functional
Leishmania amazonensis [18] = assay: Leishmanicidal activity against Leishmania amazonensis amastigotes infected in BALB/c mouse assessed as suppression of parasite load in lesions at 25 mg/kg/day, sc administered 4 weeks after infection for 15 days measured after 1 week relative to control; format: functional; conditions: route subcutaneous
[19] = Cytotoxicity against BALB/c mouse peritoneal macrophages at 21.7 uM after 48 hrs by trypan blue exclusion method; format: cell-based; conditions: macrophage
Leishmania amazonensis [20] = assay: Leishmanicidal activity against Leishmania amazonensis amastigotes infected in BALB/c mouse assessed as suppression of lesion weight at 10 mg/kg/day, sc administered 4 weeks after infection for 15 days measured after 1 week relative to control; format: functional; conditions: route subcutaneous
Leishmania amazonensis [21] = assay: Leishmanicidal activity against Leishmania amazonensis amastigotes infected in BALB/c mouse assessed as suppression of lesion weight at 25 mg/kg/day, po administered 4 weeks after infection for 15 days measured after 1 week relative to control; format: functional
Leishmania amazonensis [22] = assay: Leishmanicidal activity against Leishmania amazonensis IFLA/BR/67/PH8 promastigotes at >13.03 uM after 72 hrs; format: functional, organism-based
Leishmania amazonensis [23] = assay: Antileishmanial activity against Leishmania amazonensis PH8 amastigotes infected in mouse peritoneal macrophages at >4.34 uM; format: functional, organism-based
Leishmania amazonensis [24] = assay: Leishmanicidal activity against Leishmania amazonensis amastigotes infected in BALB/c mouse assessed as suppression of parasite load in lesions at 25 mg/kg/day, po administered 4 weeks after infection for 15 days measured after 1 week relative to control; format: functional
Leishmania amazonensis [25] = assay: Antileishmanial activity against Leishmania amazonensis PH8 amastigotes infected in mouse peritoneal macrophages after 48 hrs; format: functional, organism-based; conditions: PH8, 48 h
Leishmania donovani [26] = assay: Leishmanicidal activity against Leishmania donovani MHOM/BR/74/PP75 promastigotes after 72 hrs; format: functional, organism-based
J774 [27] = assay: Cytotoxicity against mouse J774 macrophages at 2.1 uM after 24 hrs by resazurin test; format: cell-based; conditions: j774, 24 h
[28] = Cytotoxicity against mouse NCTC-929 fibroblast at 8.6 uM after 24 hrs by resazurin test; format: cell-based; conditions: nctc-929, 24 h
[29] = Cytotoxicity against BALB/c mouse peritoneal macrophages at 8.6 uM after 48 hrs by trypan blue exclusion method; format: cell-based; conditions: macrophage
Leishmania donovani [30] = assay: Antileishmanial activity against Leishmania donovani MHOM/BR/74/PP75 promastigotes assessed as lysis of promastigotes at 100 ug/ml after 72 hrs; format: functional
Leishmania amazonensis [31] = assay: Leishmanicidal activity against Leishmania amazonensis amastigotes infected in BALB/c mouse assessed as suppression of lesion weight at 25 mg/kg/day, sc administered 4 weeks after infection for 15 days measured after 1 week relative to control; format: functional; conditions: route subcutaneous
J774 [32] = assay: Cytotoxicity against mouse J774 macrophages at 8.6 uM after 24 hrs by resazurin test; format: cell-based; conditions: j774, 24 h
Leishmania braziliensis [33] = assay: Leishmanicidal activity against Leishmania braziliensis MHOM/BR/75/M2903 promastigotes after 72 hrs; format: functional, organism-based; conditions: MHOM/BR/75/M2903, 72 h
Leishmania amazonensis [34] = assay: Leishmanicidal activity against Leishmania amazonensis amastigotes infected in BALB/c mouse assessed as suppression of parasite load in lesions at 100 mg/kg/day, sc administered 4 weeks after infection for 15 days measured after 1 week relative to control; format: functional, organism-based
Leishmania amazonensis [35] = assay: Leishmanicidal activity against Leishmania amazonensis amastigotes infected in BALB/c mouse assessed as suppression of lesion weight at 100 mg/kg/day, sc administered 4 weeks after infection for 15 days measured after 1 week relative to control; format: functional, organism-based

COc1ccc(CCc2cc(OC)ccc2OC)cc1
Activity (Leishmania amazonensis [1]): <70%
Activity (Leishmania braziliensis [2]): <70%

O=C(Cn1ccnc1[N+](=O)[O-])NCc1ccccc1 [BENZNIDAZOLE]
IC50 (Trypanosoma cruzi [3]): 192 µM
IC50 (Trypanosoma cruzi [4]): 54.7 µM

Oc1ccc(CCc2cc(O)ccc2O)cc1
Activity [5]: 7.91%
Activity (Leishmania amazonensis [6]): 90%
Activity (Leishmania amazonensis [7]): 93%
Activity (Leishmania donovani [8]): Active
Activity [9]: 0%
Activity (Leishmania braziliensis [10]): Active
IC50 (Leishmania amazonensis [11]): 1.1 µM
Activity [12]: 0%
Activity [13]: 0%
Activity (J774 [14]): 2.11%
Activity [15]: 0.66%
IC50 (Trypanosoma cruzi [3]): 17.3 µM
Activity (Leishmania amazonensis [1]): 100%
Activity (J774 [16]): 18.88%
Activity (Leishmania amazonensis [17]): 68.6%
IC50 (Trypanosoma cruzi [4]): 5.8 µM
Activity (Leishmania amazonensis [18]): 97%
Activity [19]: 1.4%
Activity (Leishmania amazonensis [20]): 95.9%
Activity (Leishmania amazonensis [21]): 80.9%
Activity (Leishmania braziliensis [2]): 100%
Activity (Leishmania amazonensis [22]): Active
Activity (Leishmania amazonensis [23]): Active
Activity (Leishmania amazonensis [24]): 93.1%
IC50 (Leishmania amazonensis [25]): 1.5 µM
IC50 (Leishmania donovani [26]): 0.5 µM
Activity (J774 [27]): 0.76%
Activity [28]: 2.93%
Activity [29]: 0%
Activity (Leishmania donovani [30]): 100%
Activity (Leishmania amazonensis [31]): 98.3%
Activity (J774 [32]): 4.89%
IC50 (Leishmania braziliensis [33]): 1.1 µM

N=C(N)c1ccc(OCCCCCOc2ccc(C(=N)N)cc2)cc1 [PENTAMIDINE]
IC50 (Leishmania amazonensis [11]): 9.8 µM
IC50 (Leishmania amazonensis [25]): 0.9 µM
IC50 (Leishmania donovani [26]): 9.8 µM
IC50 (Leishmania braziliensis [33]): 9.8 µM

Oc1ccc(CCc2cccc(O)c2)cc1 [LUNULARIN]
Activity (Leishmania amazonensis [1]): <70%
Activity (Leishmania braziliensis [2]): <70%

Oc1ccc(/C=C/c2cc(O)cc(O)c2)cc1 [RESVERATROL]
Activity (Leishmania amazonensis [1]): <70%
Activity (Leishmania braziliensis [2]): 80%
Activity (Leishmania donovani [30]): <70%

MEGLUMINE ANTIMONATE
Activity (Leishmania amazonensis [34]): 98.2%
Activity (Leishmania amazonensis [35]): 72.1%
